According to patent publication US8680152B2, “Cathepsin inhibitors for the treatment of bone cancer and bone cancer pain” (Virobay, Inc., priority 2011, dated 2014):
Read-outs that look alike come from different tables or passages of the source.

Tests used:
cathepsin B = cathepsin B (Homo sapiens, UniProt P07858); experiment: Cathepsin B assay; assay type: biochemical
Description: Solutions of test compounds in varying concentrations were prepared in 101 μL of dimethyl sulfoxide (DMSO) and then diluted into assay buffer (40 μL, comprising: N,N-bis(2-hydroxyethyl)-2-aminoethanesulfonic acid (BES), 50 mM (pH 6); polyoxyethylenesorbitan monolaurate, 0.05%; and dithiothreitol (DTT), 2.5 mM). Human cathepsin B (0.025 pMoles in 25 μL of assay buffer) was added to the dilutions. The assay solutions were mixed for 5-10 seconds on a shaker plate, covered and incubated for 30 min at room temperature. Z-FR-AMC (20 nMoles in 25 μL of assay buffer) was added to the assay solutions and hydrolysis was followed spectrophotometrically at (λ 460 nm) for 5 min. Apparent inhibition constants (Ki) were calculated from the enzyme progress curves using standard mathematical models.

Human Cathepsin V = Human Cathepsin V (Homo sapiens, UniProt O60911); experiment: Cathepsin V assay; assay type: biochemical; conditions: for inhibition at 0.1 µM: single data point of 100 nM
Sequence of Human Cathepsin V (O60911 114-334): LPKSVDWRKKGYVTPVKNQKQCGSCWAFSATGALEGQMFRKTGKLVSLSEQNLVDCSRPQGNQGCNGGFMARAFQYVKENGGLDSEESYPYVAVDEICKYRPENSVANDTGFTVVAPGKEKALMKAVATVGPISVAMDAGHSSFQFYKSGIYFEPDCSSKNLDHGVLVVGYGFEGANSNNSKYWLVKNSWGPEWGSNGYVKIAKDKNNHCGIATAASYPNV
Description: The assays were performed similarly to those described above. Human Cathepsin V: The buffer used to assay this enzyme consisted of: 50 mM MES (pH 6.5), 2.5 mM DTT, 2.5 mM EDTA, 100 mM NaCl, 0.01% BSA and 10% DMSO. Recombinant human cathepsin V was supplied at 2.0 nM. Substrate, Z-Phe-Arg-AMC, was supplied at 25 μM. Apparent inhibition constants (Ki) were calculated from the enzyme progress curves using standard mathematical models.

Human cathepsin S = Human cathepsin S (Homo sapiens, UniProt P25774); experiment: Cathepsin S assay; assay type: biochemical
Sequence of Human cathepsin S (P25774 115-331): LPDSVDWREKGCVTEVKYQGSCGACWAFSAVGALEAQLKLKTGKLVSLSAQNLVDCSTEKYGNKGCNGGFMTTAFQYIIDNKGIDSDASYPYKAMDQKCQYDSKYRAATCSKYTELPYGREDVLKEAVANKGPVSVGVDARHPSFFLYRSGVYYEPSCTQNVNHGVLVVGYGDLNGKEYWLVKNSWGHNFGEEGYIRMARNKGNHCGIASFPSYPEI
Description: (§1) Solutions of test compounds in varying concentrations were prepared in 10 μL of dimethyl sulfoxide (DMSO) and then diluted into assay buffer (40 μL, comprising: MES, 50 mM (pH 6.5); EDTA, 2.5 mM; and NaCl, 100 mM); β-mercaptoethanol, 2.5 mM; and BSA, 0.00%. Human cathepsin S (0.05 pMoles in 25 μL of assay buffer) was added to the dilutions. The assay solutions were mixed for 5-10 seconds on a shaker plate, covered and incubated for 30 min at room temperature. Z-Val-Val-Arg-AMC (4 nMoles in 25 μL of assay buffer containing 10% DMSO) was added to the assay solutions and hydrolysis was followed spectrophotometrically (at λ 460 nm) for 5 min. Apparent inhibition constants (Ki) were calculated from the enzyme progress curves using standard mathematical models.

cathepsin L = cathepsin L (Homo sapiens, UniProt P07711); experiment: Cathepsin L assay; assay type: biochemical; conditions: for inhibition at 0.1 µM: single data point of 100 nM
Sequence of cathepsin L (P07711 114-333): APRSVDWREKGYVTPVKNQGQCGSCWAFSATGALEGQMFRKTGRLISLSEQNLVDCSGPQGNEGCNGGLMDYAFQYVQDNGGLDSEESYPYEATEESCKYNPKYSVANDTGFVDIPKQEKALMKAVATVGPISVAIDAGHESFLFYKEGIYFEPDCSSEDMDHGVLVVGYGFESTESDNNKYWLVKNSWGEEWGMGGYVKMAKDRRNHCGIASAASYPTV
Description: (§2) Solutions of test compounds in varying concentrations were prepared in 10 μL of dimethyl sulfoxide (DMSO) and then diluted into assay buffer (40 μL, comprising: MES, 50 mM (pH 5.5); EDTA, 2.5 mM; and DTT, 2.5 mM). Human cathepsin L (0.05 pMoles in 25 μL of assay buffer) was added to the dilutions. The assay solutions were mixed for 5-10 seconds on a shaker plate, covered and incubated for 30 min at room temperature. Z-Phe-Arg-AMC (1 nMoles in 25 μL of assay buffer) was added to the assay solutions and hydrolysis was followed spectrophotometrically at (λ 460 nm) for 5 min. Apparent inhibition constants (Ki) were calculated from the enzyme progress curves using standard mathematical models.

human osteoclasts = experiment: Inhibition of bone resorption in vitro (human osteoclasts on bovine bone slices); assay type: cell-based; conditions: CTX/TRACP5b, FIG. 7
Description: FIG. 7. Inhibition of Bone Resorption In Vitro. […] Compounds of the present invention were added to cultured human differentiated bone marrow-derived osteoclasts cultured on bovine bone slices allowing them to resorb bone. Tartrate-resistant acid phosphatase 5b activity (TRACP 5b) was measured in the culture medium as an index of the number of osteoclasts formed in each well, and C-terminal cross-linked telopeptides of type 1 collagen (CTX) was measured in the culture medium to quantitate bone resorption. […] The irreversible protease inhibitor E64 as well as the reversible specific cathepsin K protease inhibitor odanacatib were included as assay controls.
Compound A was assessed in an in vitro assay for its efficacy in blocking resorption activity of human osteoclasts in vitro. Bone marrow-derived human osteoclast precursor cells were cultured on bovine bone slices for 7 days in conditions that allowed osteoclast differentiation, and allowing them to differentiate into bone-resorbing osteoclasts. After completion of osteoclast differentiation at day 7, the culture medium was removed and new culture medium for assessing osteoclast activity was added. Test compounds including Compound A was added to the cultures at this stage on day 7. Cultures were then allowed to continue for an additional 3 days allowing them to resorb bone. Concentrations of Compound assessed were 1, 3, 10, 30, 100, 300, and 1000 nM in 8 replicates. Tartrate-resistant acid phosphatase 5b activity (TRACP 5b) was measured from the culture medium collected on day 7 indicating the number of mature osteoclasts formed in each well before adding compounds. C-terminal cross-linked telopeptides of type 1 collagen (CTX) were measured form the culture medium collected at day 10 to quantitate bone resorption during days 7-10. […] The study was performed in […] with each containing a baseline group including vehicle, a control group with a reference compound E64, and 7 concentrations of the test compound to determine an EC50 for inhibition of resorption activity.

[1] = test system: multiple human cathepsin enzymes; experiment: Cathepsin inhibitory profile on multiple cathepsin enzymes; assay type: biochemical
Source text: FIG. 1. […] Methods are similar to those set forth in the Biological Examples.

Human cathepsin F = molecular target: T1, Human cathepsin F (Homo sapiens, UniProt Q9UBX1); experiment: Cathepsin F assay; assay type: biochemical
T1 sequence (Q9UBX1 271-484): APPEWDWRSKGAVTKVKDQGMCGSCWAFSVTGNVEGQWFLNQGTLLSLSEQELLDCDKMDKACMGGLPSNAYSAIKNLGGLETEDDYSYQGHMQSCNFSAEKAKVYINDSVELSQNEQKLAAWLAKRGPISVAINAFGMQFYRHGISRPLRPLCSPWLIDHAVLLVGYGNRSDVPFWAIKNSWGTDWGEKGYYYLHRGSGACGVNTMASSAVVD
Description: as §1, with “DTT,” for “β-mercaptoethanol,”, “0.01%.” for “0.00%.”, “F (0.1” for “S (0.05”, “Z-Phe-Arg-AMC (2” for “Z-Val-Val-Arg-AMC (4”, “Apparent inhibition constants (Ki) were calculated from the enzyme progress curves using standard mathematical models.” left out

[2] = molecular target: T2, Cathepsin K (huRab), humanized rabbit cathepsin K enzyme (Oryctolagus cuniculus, UniProt P43236); experiment: Cathepsin K (huRab) assay; assay type: biochemical
T2 sequence (P43236 1-329 Y175D/V274L): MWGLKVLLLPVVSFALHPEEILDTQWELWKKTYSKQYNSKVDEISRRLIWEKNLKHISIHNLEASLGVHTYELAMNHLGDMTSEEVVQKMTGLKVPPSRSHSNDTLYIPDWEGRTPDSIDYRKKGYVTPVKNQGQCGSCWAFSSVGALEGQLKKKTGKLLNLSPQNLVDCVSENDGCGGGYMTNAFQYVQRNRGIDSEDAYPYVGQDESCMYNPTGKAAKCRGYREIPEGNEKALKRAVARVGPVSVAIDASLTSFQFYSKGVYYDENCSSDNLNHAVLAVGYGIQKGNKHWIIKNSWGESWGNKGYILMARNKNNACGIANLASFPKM
Description: FIG. 5. Cathepsin inhibitory profiles for Compound A, Compound B, and Compound C. All human enzymes with the exception of CatK HuRab. This is a humanized rabbit cathepsin K enzyme where the key amino acids in the active site of rabbit cathepsin K have been converted to match the amino acids found in the active site of human cathepsin K. The remainder of the enzyme is rabbit. Methods are as set forth in the Examples.
as §2, with “K (0.0906” for “L (0.05”, “(4” for “(1”

[3] = tested at one concentration, 100 nM

SMILES	IC50 (cathepsin B)	inhibition at 0.1 µM (cathepsin B; one concentration, 100 nM)	inhibition at 0.1 µM (Human Cathepsin V)	IC50 (Human Cathepsin V; [3])	IC50 (Human cathepsin S)	inhibition at 0.1 µM (cathepsin L)	IC50 (cathepsin L; [3])	melting point	IC50 (Human Cathepsin V)	IC50 (cathepsin L)	IC50 (Human cathepsin F)	IC50 [2]	inhibition of bone resorption in vitro (human osteoclasts)	cathepsin inhibitory profile on multiple cathepsin enzymes [1]
CC[C@H](NC(=O)[C@H](CCS(C)(=O)=O)N[C@@H](c1ccc(F)cc1)C(F)(F)F)C(=O)C(=O)NC1CC1 [Example 1, N-cyclopropyl-3S-{4-methanesulfonyl-2S-[2,2,2-trifluoro-1S-(4-fluoro-phenyl)-ethylamino]-butyrylamino}-2-oxo-pentanamide]								152.5 to 153.5 °C						
CC[C@H](NC(=O)[C@H](CS(=O)(=O)c1cccc(S(C)(=O)=O)c1)N[C@@H](c1ccc(F)cc1)C(F)(F)F)C(=O)C(=O)NC1CC1 [Compound B, (S)—N-Cyclopropyl-3-((R)-3-((3-(methylsulfonyl)phenyl)sulfonyl)-2-(((S)-2,2,2-trifluoro-1-(4-fluorophenyl)ethyl)amino)propanamido)-2-oxopentanamide]													inhibit bone resorption in vitro, with similar potency to Compound A	
CC[C@H](NC(=O)[C@H](CS(=O)(=O)Cc1cccnc1)N[C@@H](c1ccc(F)cc1)C(F)(F)F)C(=O)C(=O)NC1CC1 [Compound F, (S)—N-cyclopropyl-2-oxo-3-((R)-3-((pyridin-3-ylmethyl)sulfonyl)-2-(((S)-2,2,2-trifluoro-1-(4-fluorophenyl)ethyl)amino)propanamido)pentanamide]	2.5 nM				0.34 nM				< 0.25 nM	0.3 nM	74 nM	28 nM	inhibit bone resorption in vitro, with similar potency to Compound A	

Now from value to compound, other results behind:

IC50 (cathepsin B)	inhibition at 0.1 µM (cathepsin B; one concentration, 100 nM)	inhibition at 0.1 µM (Human Cathepsin V)	IC50 (Human Cathepsin V; [3])	IC50 (Human cathepsin S)	inhibition at 0.1 µM (cathepsin L)	IC50 (cathepsin L; [3])	melting point	IC50 (Human Cathepsin V)	IC50 (cathepsin L)	IC50 (Human cathepsin F)	IC50 [2]	SMILES	inhibition of bone resorption in vitro (human osteoclasts)	cathepsin inhibitory profile on multiple cathepsin enzymes [1]
< 100 nM	≥ 98%	≥ 98%	< 100 nM	0.332 nM	≥ 98%	< 100 nM						CC[C@H](NC(=O)[C@H](CC(F)(F)CC1CC1)N[C@@H](c1ccc(F)cc1)C(F)(F)F)C(=O)C(=O)NC1CC1 [Compound E, (S)-5-cyclopropyl-N—((S)-1-(cyclopropylamino)-1,2-dioxopentan-3-yl)-4,4-difluoro-2-(((S)-2,2,2-trifluoro-1-(4-fluorophenyl)ethyl)amino)pentanamide]	inhibit bone resorption in vitro, with similar potency to Compound A	
23 nM		63%	< 100 nM	0.267 nM	75%	< 100 nM						CC[C@H](NC(=O)[C@H](CC(F)(F)CC1CC1)NCC(F)(F)Oc1ccc(F)cc1)C(=O)C(=O)NC1CC1 [Compound D, (S)-5-cyclopropyl-N-((S)-1-(cyclopropylamino)-1,2-dioxopentan-3-yl)-2-(2,2-difluoro-2-(4-fluorophenoxy)ethylamino)-4,4-difluoropentanamide]	inhibit bone resorption in vitro, with similar potency to Compound A	very favorable cathepsin inhibitory profile
